Like-named read-outs stand apart in the source and are kept apart here.
Legend:
Soybean = assay: Grain yield of soybean (Example 30); format: in vivo; conditions: 3 x 2 kg/ha; for Grain yield: control 29.53
Procedure: Soybean cultures were sprayed three times with the compositions according to the invention. The active agents were applied in a dosis of 2 kg/ha, in all of the treatments. The stand was sprayed first at the beginning of flowering, then at the flowering of the apical cluster, and finally two weeks after the second treatment.
The grain yield of soybean, harvested from the treated and control parcels, was measured.

grass stands = assay: Crop yield and nitrogen content of grass stand (Example 34); format: in vivo; conditions: for Protein nitrogen content / Total nitrogen content / Crop yield: 3 x 2 kg/ha; for Protein nitrogen content: control 2.80; for Total nitrogen content: control 4.22; for Crop yield: 4 m^2 parcels, control 5.10
Procedure: Tests were performed on grass stands to examine how the compositions according to the invention influence the crop yield, furthermore the total nitrogen content and protein nitrogen content of the crop.
Parcels, 4 m^2 in area, were separated and pegged out on a grass land, and the parcels were sprayed three times with the compositions according to the invention. The liquid compositions were diluted with water prior to spraying, and spraying was repeated in every two weeks. A dose of 2 kg/ha w was applied in each of the treatments.
Thereafter the grass was mowed, the green crop was weighed, and the total nitrogen content and protein nitrogen content of the mowed grass were determined.

Tobacco callus = assay: Daily growth, cell number and frequency of mitosis of tobacco callus (Example 13); format: cell-based; conditions: for Cell number/g / Daily growth: 10 ppm active agent, 3 weeks
Procedure: An untreated culture medium served as control. Tobacco callus was grown on the treated and untreated culture media (incubation period: 3 weeks), and the daily growth, the increase in cell number and the frequency of mitosis were measured according to the method of Skoog.

[1] = system: callus isolated from Datura innoxia Mill. roots; assay: Growth of callus isolated from Datura innoxia Mill. roots (Example 15); format: cell-based; conditions: for percentage growth promoting effect: control = 100, 30240 min
Pea = assay: Stimulation of nutrient uptake, labelled phosphate, pea (Example 24); conditions: for labelled phosphate in nucleic acid fraction: 200 ppm, control 23.3
Procedure: The compositions according to the invention were diluted with distilled water to an active agent concentration of 200 ppm, and leaf segments of wheat, maize and pea, weighing 200 mg each, were treated with the solutions. Thereafter the treated green leaf segments were treated for 0.5 hours with a solution of labelled phosphate ions (radioactivity: 30 μCi/50 ml). After this exposition period the treated leaf segments and the untreated controls were processed in a manner known per se to isolate the nucleic acid fractions, and the isolated nucleic acid fractions were dissolved in 6 n ammonium hydroxide solution. Stock solutions were prepared from the resulting solutions, and the amount of labelled phosphate ions present in the stock solutions were measured by liquid scintillation.

[2] = system: Mixed soybean/sunflower cultures; assay: Nitrogen content of mixed soybean/sunflower culture (Example 27); format: in vivo; conditions: 3 x 2 kg/ha; for Protein nitrogen content: control 2.27; for Total nitrogen content: control 2.56; for Protein nitrogen content in % of the total nitrogen content: control 65.2
Procedure: Mixed soybean/sunflower cultures, to be harvested when green, were treated with the compositions according to the invention under large-parcel field conditions. The tests were performed in fourfold replications on parcels 1 hectare in area, each. The compositions were diluted with water and sprayed onto the parcels three times, in doses of 2 kg/ha, each. The first treatment was performed when the soil was already completely covered by green plants, the second treatment was performed two weeks later, and then the third after two additional weeks. The green plants were harvested from the treated and control parcels, and the total nitrogen content and protein nitrogen content were determined.

Libelulla wheat variety = assay: Grain yield of Libelulla wheat (Example 31); format: in vivo; conditions: for Weight of grains, increase: in vivo; for Weight of grains collected from 100 ears: seed 2 kg/ha + soil 2 kg/ha, control 215.79
Procedure: (§1) Two wheat varieties, Libelulla and Mexican 226 K, were utilized in the tests performed under large-parcel field conditions. The sowing seeds were coated with the compositions of the invention according to the wet powder seed dressing technique; a dosis of 2 kg/ha was applied.
(§2) The soil was also treated with the compositions according to the invention directly before sowing. A dose of 2 kg/ha was applied.
(§3) The grain yields of the wheat varieties, harvested from the treated and control parcels, were measured, and the total nitrogen content and protein nitrogen content of the grains were determined.

[3] = system: Mexican 226 K wheat variety; assay: Nitrogen contents of grains of Mexican 226 K wheat (Example 31); format: in vivo; conditions: for Protein nitrogen content: control 1.61; for Total nitrogen content: seed 2 kg/ha + soil 2 kg/ha, control 2.12
Procedure: as §1, §2, §3

Pinto beans = assay: Preservation of chlorophyll in Pinto beans (Example 17); format: in vivo; conditions: zeatin 20 ppm, kinetin/benzyladenine 30 ppm, others 200 ppm; for Extinction: 665 mμ, 200 mg fresh weight, 2 weeks
Procedure: Endogeneous and synthetic cytokinins were applied as comparative substances. Solutions with varying concentrations, but always more dilute than 10^-4 moles, were applied in the tests.
The tests were performed on Pinto beans. The plants were treated with an endogenous cytokinin (zeatine), synthetic cytokinins (kinetin, benzyladenine) or cytokinin-like compounds, respectively, and the chlorophyll content of the leaves was determined 2 weeks after the treatment by measuring the extinction of the extract of the leaves at 665 mμ.

Pannonia vine variety = assay: Berry yield and sugar content of vine, Pannonia (Example 33); format: in vivo; conditions: for Berry yield: 3 x 2 kg/ha, control 216; for Sugar content: control 13.0; for Sugar yield: control 28.08
Procedure: (§4) Vine stands were sprayed with the compositions according to the invention to examine their effects exerted on the berry yield and sugar content. The compositions, diluted with water, were sprayed three times onto the plants. The first treatment was performed prior to flowering, the second one three weeks later, and the third one six weeks after the first one. The dose applied was 2 kg/ha in each of the treatments.
(§5) Comparative tests were also performed with commonly used growth regulating compositions, i.e. CCC (chlorocholine chloride), Ethrel (or Etefon; 2-chloroethylphosphonic acid) and Nevirol (N-phenyl-phthalaiminic acid). The results were compared to those observed with the untreated controls.
(§6) Two vine varieties, Pannonia and Egri leanyka, were involved in the tests.

[4] = system: Edible beans (Superelite variety); assay: Crop yield of edible beans (Example 35); format: in vivo; conditions: for Crop yield: control 15.00
Excerpt: Edible beans (Superelite variety) were sprayed once or twice with the compositions according to the invention.
From the data of Table 29 conclusions can be drawn for the correlation between the development stage of the stand at treatment and the effect of the treatment.

[5] = system: Egri leanyka vine variety; assay: Berry yield and sugar content of vine, Egri leanyka (Example 33); format: in vivo; conditions: for Berry yield: 3 x 2 kg/ha, control 151.15; for Sugar content: control 16.7; for Sugar yield: control 18.93
Procedure: as §4, §5, §6

[6] = 2 treatments, 06.20.1979 and 07.06.1979

Q: What does the source list for `N=C(N)N.N=C(N)N.Oc1nnc(O)c2ccccc12` [1,4-dihydroxyphthalazine diguanidine salt]?
A: Grain yield, increase (Soybean): 39%; Grain yield (Soybean): 41.22 q/ha; Protein nitrogen content (grass stands): 2.62%; Total nitrogen content (grass stands): 3.89%; Crop yield (grass stands): 5.35; Cell number/g (Tobacco callus): 266.0 10^4 units; Daily growth (Tobacco callus): 19.3 mg; activity at 10 ppm (Tobacco callus; Nicotiana tabacum, 504 h, 10 ppm, untreated control = 100): 117%; Dry substance ([1]; with kinetin (2 ppm)): 3.53%; Dry weight of the callus ([1]; with kinetin (2 ppm)): 269.07 mg; Fresh weight of the callus ([1]; with kinetin (2 ppm)): 7.6110 g; Growth, dry weight ([1]; with kinetin (2 ppm)): 24.46; Growth, fresh weight ([1]; with kinetin (2 ppm)): 24.37; Speed of growth ([1]; with kinetin (2 ppm)): 149.20 mg/day; percentage growth promoting effect ([1]; with kinetin): 156%; Dry substance ([1]; without kinetin): 7.14%; Dry weight of the callus ([1]; without kinetin): 66.11 mg; Fresh weight of the callus ([1]; without kinetin): 0.9258 g; Growth, dry weight ([1]; without kinetin): 5.25; Growth, fresh weight ([1]; without kinetin): 2.08; Speed of growth ([1]; without kinetin): 12.77 mg/day; percentage growth promoting effect ([1]; without kinetin): 648%; activation at 200 ppm (Pea): 51.7%; labelled phosphate in nucleic acid fraction (Pea): 38.4 1000 cpm/g; Protein nitrogen content, stimulation [2]: 39.6%; Total nitrogen content, stimulation [2]: 34.7%; Protein nitrogen content [2]: 3.17 % of dry weight; Total nitrogen content [2]: 3.45 % of dry weight; Protein nitrogen content in % of the total nitrogen content [2]: 94.8%; Weight of grains, increase (Libelulla wheat variety): 7%; Weight of grains collected from 100 ears (Libelulla wheat variety): 232.35 g; Protein nitrogen content, stimulation [3]: 28.5%; Total nitrogen content, stimulation [3]: 5.6%; Protein nitrogen content [3]: 2.07 % of dry substance; Total nitrogen content [3]: 2.81 % of dry substance; Extinction (Pinto beans): 0.985; Promotion (Pinto beans): 46.8%; Sugar content, increase (Pannonia vine variety): 53.8%; Sugar yield, increase (Pannonia vine variety): 62%; Berry yield (Pannonia vine variety): 232 q/ha; Sugar content (Pannonia vine variety): 20.0%; Sugar yield (Pannonia vine variety): 46.40 q/ha; Crop yield, increase ([4]; 1 treatment, 07.06.1979): 18.4%; Crop yield ([4]; 1 treatment, 07.06.1979): 17.77 q/ha; Berry yield [5]: 124.23 q/ha; Sugar content [5]: 16.8%; Sugar yield [5]: 15.65 q/ha

Q: What does the source list for `CCC[n+]1c[nH]c2ccccc21.[Br-]` [N--(n-Propyl)-benzimidazolium bromide, N-(n-propyl)-benzimidazolium bromide]?
A: Grain yield, increase (Soybean): 30%; Grain yield (Soybean): 38.67 q/ha; Protein nitrogen content (grass stands): 3.54%; Total nitrogen content (grass stands): 5.36%; Crop yield (grass stands): 5.27; Protein nitrogen content, increase (grass stands; in vivo): 26.4%; Total nitrogen content, increase (grass stands; in vivo): 27.0%; Cell number/g (Tobacco callus): 327.5 10^4 units; Daily growth (Tobacco callus): 22.8 mg; Dry substance ([1]; with kinetin (2 ppm)): 3.17%; Dry weight of the callus ([1]; with kinetin (2 ppm)): 209.13 mg; Fresh weight of the callus ([1]; with kinetin (2 ppm)): 6.5772 g; Growth, dry weight ([1]; with kinetin (2 ppm)): 18.78; Growth, fresh weight ([1]; with kinetin (2 ppm)): 20.92; Speed of growth ([1]; with kinetin (2 ppm)): 128.10 mg/day; percentage growth promoting effect ([1]; with kinetin): 134%; Dry substance ([1]; without kinetin): 7.07%; Dry weight of the callus ([1]; without kinetin): 43.29 mg; Fresh weight of the callus ([1]; without kinetin): 0.6120 g; Growth, dry weight ([1]; without kinetin): 3.09; Growth, fresh weight ([1]; without kinetin): 1.04; Speed of growth ([1]; without kinetin): 6.36 mg/day; percentage growth promoting effect ([1]; without kinetin): 322%; labelled phosphate in nucleic acid fraction (Pea): 32.7 1000 cpm/g; Protein nitrogen content, stimulation [2]: 21.1%; Total nitrogen content, stimulation [2]: 9.7%; Protein nitrogen content [2]: 2.75 % of dry weight; Total nitrogen content [2]: 2.80 % of dry weight; Protein nitrogen content in % of the total nitrogen content [2]: 98.9%; Weight of grains, increase (Libelulla wheat variety): 65%; Weight of grains collected from 100 ears (Libelulla wheat variety): 357.73 g; Protein nitrogen content, stimulation [3]: 8.0%; Total nitrogen content, stimulation [3]: 1.0%; Protein nitrogen content [3]: 1.74 % of dry substance; Total nitrogen content [3]: 2.15 % of dry substance; Extinction (Pinto beans): 1.081; Promotion (Pinto beans): 61.2%; Sugar content, increase (Pannonia vine variety): 21.5%; Sugar yield, increase (Pannonia vine variety): 27%; Berry yield (Pannonia vine variety): 226 q/ha; Sugar content (Pannonia vine variety): 15.8%; Sugar yield (Pannonia vine variety): 35.70 q/ha; Crop yield, increase ([4]; 1 treatment, 06.20.1979): 18.4%; Crop yield ([4]; 1 treatment, 06.20.1979): 17.77 q/ha; Crop yield, increase ([4]; 1 treatment, 07.06.1979): 13.5%; Crop yield ([4]; 1 treatment, 07.06.1979): 17.03 q/ha; Crop yield, increase [4, 6]: 30.1%; Crop yield [4, 6]: 19.52 q/ha; Berry yield, increase [5]: 17.0%; Sugar yield, increase [5]: 17.0%; influence on sugar content, in words [5]: did not influence the sugar content; Berry yield [5]: 176.92 q/ha; Sugar content [5]: 16.7%; Sugar yield [5]: 22.16 q/ha; Berry yield, increase ([5]; listed as N-(n-propyl)-benzimidazolium bromide): 17%
